Among the data in paper doi:10.1101/2025.03.31.646177v2, “Target engagement studies and kinetic live-cell degradation assays enable the systematic characterization of HDAC6 PROTACs” (biorxiv, 2025) are IC50 and Kd values, retold here.

SMILES strings stand for the structures.

By IC50 is commonly meant the concentration that inhibits the measured activity by half. By Kd is commonly meant the equilibrium constant for the complex coming apart. A higher Kd goes with weaker binding.

The target in test [1] is T1, HDAC6-HiBiT (endogenously tagged HDAC6 in HeLa HDAC6-HiBiT LgBiT cells) (Homo sapiens, UniProt Q9UBN7).
T1 sequence (Q9UBN7 1-1215): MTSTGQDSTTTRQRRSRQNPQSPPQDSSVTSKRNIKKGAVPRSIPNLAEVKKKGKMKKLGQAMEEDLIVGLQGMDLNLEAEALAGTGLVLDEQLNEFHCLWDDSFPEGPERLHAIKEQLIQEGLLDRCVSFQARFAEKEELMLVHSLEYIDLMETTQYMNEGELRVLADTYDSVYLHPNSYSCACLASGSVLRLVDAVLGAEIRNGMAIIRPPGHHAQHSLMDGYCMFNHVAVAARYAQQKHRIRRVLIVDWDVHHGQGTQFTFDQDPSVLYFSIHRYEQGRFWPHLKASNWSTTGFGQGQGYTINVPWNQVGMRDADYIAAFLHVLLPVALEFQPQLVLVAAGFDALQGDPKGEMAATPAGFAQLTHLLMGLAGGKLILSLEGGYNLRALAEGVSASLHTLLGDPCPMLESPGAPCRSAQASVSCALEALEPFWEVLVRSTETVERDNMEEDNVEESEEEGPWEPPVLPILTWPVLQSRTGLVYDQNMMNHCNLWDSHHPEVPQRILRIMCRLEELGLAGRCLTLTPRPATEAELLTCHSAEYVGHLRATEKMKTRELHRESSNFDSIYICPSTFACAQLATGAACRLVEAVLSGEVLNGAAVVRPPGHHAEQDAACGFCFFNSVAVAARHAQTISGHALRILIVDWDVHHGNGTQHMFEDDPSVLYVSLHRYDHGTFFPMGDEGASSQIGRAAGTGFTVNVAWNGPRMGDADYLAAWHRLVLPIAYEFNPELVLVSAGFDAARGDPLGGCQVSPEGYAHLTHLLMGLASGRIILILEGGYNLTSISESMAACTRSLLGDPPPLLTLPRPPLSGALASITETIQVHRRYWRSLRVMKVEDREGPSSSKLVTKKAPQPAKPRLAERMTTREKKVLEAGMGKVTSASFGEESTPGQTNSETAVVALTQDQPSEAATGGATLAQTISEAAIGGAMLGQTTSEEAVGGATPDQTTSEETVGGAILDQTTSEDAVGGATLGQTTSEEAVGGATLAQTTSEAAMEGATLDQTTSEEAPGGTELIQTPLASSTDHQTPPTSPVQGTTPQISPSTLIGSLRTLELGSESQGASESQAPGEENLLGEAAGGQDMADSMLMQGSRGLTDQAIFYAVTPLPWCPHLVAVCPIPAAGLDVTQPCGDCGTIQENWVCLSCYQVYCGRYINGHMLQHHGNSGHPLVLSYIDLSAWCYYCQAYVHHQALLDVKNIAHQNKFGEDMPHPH
In words: NanoBRET competition with tracer […]. The class given is cell-based. On the technique in general: BRET reads energy transfer from a luciferase to a nearby fluorophore.

The target in test [2] is T1, HDAC6-HiBiT (endogenously tagged HDAC6 in HeLa HDAC6-HiBiT LgBiT cells). In words: NanoBRET saturation binding. The class given is cell-based.
The target in test [3] is T2, HDAC6 (human recombinant) (Homo sapiens, UniProt Q9UBN7).
T2 sequence (Q9UBN7 1-1215): T1 sequence (Q9UBN7 1-1215)
Briefly: fluorogenic HDAC assay (ZMAL substrate, trypsin-coupled). The class given is biochemical. The text has this: fluorogenic HDAC assay (ZMAL substrate, trypsin-coupled) on HDAC6 (human recombinant)

The target in test [4] is HDAC1 (human recombinant) (Homo sapiens, UniProt Q13547). The test is described as above. The class given is biochemical. An excerpt:
fluorogenic HDAC assay (ZMAL substrate, trypsin-coupled) on HDAC1 (human recombinant)

Test [5] addresses HDAC2 (human recombinant) (Homo sapiens, UniProt Q92769). The description is as above. The class given is biochemical. The text has this:
fluorogenic HDAC assay (ZMAL substrate, trypsin-coupled) on HDAC2 (human recombinant)

Sequence of HDAC2 (human recombinant) (Q92769 whole entry): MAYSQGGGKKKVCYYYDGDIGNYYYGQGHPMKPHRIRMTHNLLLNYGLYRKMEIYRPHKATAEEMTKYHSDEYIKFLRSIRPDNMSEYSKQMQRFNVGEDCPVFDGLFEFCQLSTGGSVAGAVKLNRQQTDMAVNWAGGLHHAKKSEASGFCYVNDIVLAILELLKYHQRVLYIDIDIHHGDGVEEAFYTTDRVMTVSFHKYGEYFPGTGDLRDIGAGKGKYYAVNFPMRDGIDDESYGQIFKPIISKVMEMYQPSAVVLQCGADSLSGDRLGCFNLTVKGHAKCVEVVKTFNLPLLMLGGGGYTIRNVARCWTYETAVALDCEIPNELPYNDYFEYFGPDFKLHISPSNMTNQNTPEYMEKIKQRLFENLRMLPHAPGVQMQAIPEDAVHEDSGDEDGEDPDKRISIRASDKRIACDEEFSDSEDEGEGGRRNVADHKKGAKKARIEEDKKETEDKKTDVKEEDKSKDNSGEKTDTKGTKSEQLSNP
Sequence of HDAC1 (human recombinant) (Q13547 whole entry): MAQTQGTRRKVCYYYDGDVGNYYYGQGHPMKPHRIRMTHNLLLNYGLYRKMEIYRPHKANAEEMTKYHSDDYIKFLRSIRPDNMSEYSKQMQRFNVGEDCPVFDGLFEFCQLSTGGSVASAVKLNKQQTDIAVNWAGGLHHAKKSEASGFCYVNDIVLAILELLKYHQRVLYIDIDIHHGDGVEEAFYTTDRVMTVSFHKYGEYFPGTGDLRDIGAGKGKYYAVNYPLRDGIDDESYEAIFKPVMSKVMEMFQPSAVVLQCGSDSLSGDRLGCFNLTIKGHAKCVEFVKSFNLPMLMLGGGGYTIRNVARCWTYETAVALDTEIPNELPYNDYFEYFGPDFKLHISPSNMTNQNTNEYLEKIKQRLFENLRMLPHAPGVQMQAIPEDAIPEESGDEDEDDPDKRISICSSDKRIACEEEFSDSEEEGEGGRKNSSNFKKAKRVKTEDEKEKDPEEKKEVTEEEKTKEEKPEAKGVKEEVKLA

Consider `FC(F)c1nnc(-c2cnc(NCc3ccccc3)nc2)o1` [BK1], for which the concentration for half-maximal inhibition (IC50) in test [1] was 75 ± 30 nM.
Take `CN(C)c1ccc2c(-c3ccc(C(=O)NCCOCCOCCOCCn4cc(COc5ccc(C(=O)NCCCCCCC(=O)NO)cc5)nn4)cc3C(=O)[O-])c3ccc(N(C)C)cc3[o+]c2c1` [compound 4, tracer 4]: the Kd in test [2] is 120 ± 40 nM. For the same compound, the half-inhibitory concentration (IC50) in test [3] turned out to be 18 ± 1 nM; in test [4], 200 ± 20 nM; in test [5] it was 340 ± 40 nM.
On the same counts, the results for `CN(C)c1ccc2c(-c3ccc(C(=O)NCCCn4cc(COc5ccc(C(=O)NCCCCCCC(=O)NO)cc5)nn4)cc3C(=O)[O-])c3ccc(=[N+](C)C)cc-3oc2c1` [compound 5, 2-[6-(Dimethylamino)-3-(dimethyliminio)-3H-xanthen-9-yl]-5-[(3-{4-[(4-{[7-(hydroxyamino)-7-oxoheptyl]carbamoyl}phenoxy)methyl]-1H-1,2,3-triazol-1-yl}propyl)carbamoyl]benzoate] are 80 ± 11 nM, 9.1 ± 0.1 nM, 130 ± 20 nM and 220 ± 10 nM.
